# Where a SMILES comes first, the peptide text is derived from it. The star is where a group is joined. Propyl(2R-PamO,3-PamO) = CCCCCCCCCCCCCCCC(=O)OC[C@H](C*)OC(=O)CCCCCCCCCCCCCCC; Palmitoyl = CCCCCCCCCCCCCCCC(=O)*; SBn = c1ccc(CS*)cc1
# Settings: phosphate buffer containing 6 M guanidinium-hydrochloride
smiles,measurement,value
"CCCCCCCCCCCCCCCC(=O)N[C@@H](CSC[C@@H](COC(=O)CCCCCCCCCCCCCCC)OC(=O)CCCCCCCCCCCCCCC)C(=O)N[C@@H](CO)C(=O)N[C@@H](CCCCN)C(=O)N[C@@H](CCCCN)C(=O)N[C@@H](CCCCN)C(=O)N[C@@H](CCCCN)C(=O)NCC(=O)SCc1ccccc1 [Compound 6] (Palmitoyl-C(Propyl(2R-PamO,3-PamO))SKKKKG-SBn)",solubility,poor solubility

# Source: patent US8980311B2, “Liposome-mediated ligation” (University of Georgia Research Foundation, Inc., priority 2006, dated 2015)
